Data published in US4301169A, “Novel imidazole compound and anti-depressing agent containing the same” (Eisai Co., Ltd., priority 1978, dated 1981).
Like-named read-outs stand apart in the source and are kept apart here.

Experiments:
[1] = tested on: reserpine-induced hypothermia; experiment: Anti-reserpine activity (antagonism against reserpine-induced hypothermia); format: in vivo, male ddy mice; conditions: Mus musculus; minimum dose necessary for increasing body temperature of reserpine-treated mice significantly (P < 0.05) over control; reserpine 2.5 mg/kg i.p., test compound (hydrochloride) oral 18 hours later
Method: (§1) Each test compound is used in the form of a hydrochloride.
(1) Anti-reserpine activity:
The antagonism against the reserpine-induced hypothermia is examined according to the method of B. M. Askew (Life Science, 4, 725-730, 1963).
Male ddy mice having a body weight of 19 to 25 g are used as the test animal. Reserpine is injected intraperitoneally in dose of 2.5 mg/kg, and 18 hours after the injection, the test compound is orally administered and the change of the body temperature with the lapse of time is examined by using a thermistor type thermometer (Model MGA III manufactured by Shibaura Denshi).
The effect of each compound is examined with 2 to 4 dose levels.
Each of the test compound is used in the form of an aqueous solution. The control animal is treated with physiological saline solution. Four animals having a body temperature of 24° to 25° C., 18 hours after the injection of reserpine, are used for each dose. The experiment is carried out in a room at 23° to 25° C.
^(a) The minimum dose necessary for increasing the body temperature o

[2] = tested on: spontaneous motility; experiment: Influence on spontaneous motility; format: in vivo, male ddy mice; conditions: Mus musculus, 1 h; 40 mg/kg oral, hydrochloride, 60 minutes before start; 60 minutes measurement; * = significant at P <0.05; read-out: Relative Spontaneous Motility (%) to Control
Method: as §1
(2) Influence on spontaneous motility:
The spontaneous motility is examined according to the method of T. H. Sevensson (Psychopharmacologia, 14, 157, 1969). Three ddy male mice having a body weight of 20 to 25 g are put in a black observation box of an acrylic resin as one group, and the amount of the spontaneous motility during a period of 60 minutes is measured and recorded by using Animex (manufactured by Farrod Co., Sweden).
Sixty minutes before the start of the measurement of the spontaneous motility, the test compound is orally administered in a dose of 40 mg/kg. The control animal is treated with physiological saline solution. Five groups (15 mice) are used for each dose level.
*Significant increase of the spontaneous motility at P <0.05

[3] = Acute toxicity (lethal action); conditions: mouse, in vivo, mice, hydrochloride, read-out: Acute Toxicity (Lethal Ratio %)
Method: as §1
The test compound is administered in a dose of 100 or 400 mg/kg to mice for examining the lethal action. Five mice are used for each dose level. The lethal ratio is measured 24 hours after oral administration.

[4] = tested on: dopamine and its metabolites in the mouse brain; experiment: Effect on the level of dopamine and its metabolites in the mouse brain; format: in vivo
Text: Furthermore, we investigated the effect of the compound of the present invention (compound H and I) on the level of dopamine and its metabolites in the mouse brain. […] This means that the compounds of the invention antagonize against the reserpine-induced depression in a way completely different from the known tricyclic antidepressant.

[5] = tested on: spontaneous motility; experiment: Influence on spontaneous motility; format: in vivo, male ddy mice; conditions: Mus musculus, po, 1 h; 10 mg/Kg P.O. (footnote b), hydrochloride; * = significant at P <0.05; read-out: Relative Spontaneous Motility (%) to Control

Cc1ccc(-n2ccnc2C)cc1C [A, 1-(3,4-Dimethylphenyl)-2-methylimidazole]
minimal effective dose [1]: 2.5 mg/kg | response vs control in vivo at 40 mg/kg [2]: 82 ± 6% | mortality at 24 h ([3]; 100 mg/Kg oral): 0% | mortality at 24 h ([3]; 400 mg/Kg oral): 100%

Cc1nccn1-c1ccc(N(C)C)cc1 [B, 1-(4-Dimethylaminophenyl)-2-methylimidazole]
minimal effective dose [1]: 2.5 mg/kg | response vs control in vivo at 40 mg/kg [2]: 526 ± 24% | mortality at 24 h ([3]; 100 mg/Kg oral): 0% | mortality at 24 h ([3]; 400 mg/Kg oral): 80%

CCc1nccn1-c1ccc(Cl)c(Cl)c1 [C, 1-(3,4-Dichlorophenyl)-2-ethylimidazole]
minimal effective dose [1]: 1.25 to 2.5 mg/kg | response vs control in vivo at 40 mg/kg [2]: 99 ± 7% | mortality at 24 h ([3]; 100 mg/Kg oral): 0% | mortality at 24 h ([3]; 400 mg/Kg oral): 20%

Cc1cn(-c2ccc(N)cc2)c(C)n1 [D, 1-(4-Aminophenyl)-2,4-dimethylimidazole]
minimal effective dose [1]: 5 mg/kg | response vs control in vivo at 40 mg/kg [2]: 473 ± 48% | mortality at 24 h ([3]; 100 mg/Kg oral): 0% | mortality at 24 h ([3]; 400 mg/Kg oral): 60%

Cc1nccn1-c1ccc(N)c(C(F)(F)F)c1 [E, 1-(3-Trifluoromethyl-4-aminophenyl)-2-methylimidazole]
minimal effective dose [1]: 5 mg/kg | response vs control in vivo at 40 mg/kg [2]: 70 ± 8% | mortality at 24 h ([3]; 100 mg/Kg oral): 0% | mortality at 24 h ([3]; 400 mg/Kg oral): 0%

CCc1nccn1-c1ccc(N)cc1 [F, 1-(4-Aminophenyl)-2-ethylimidazole]
minimal effective dose [1]: 1.25 mg/kg | response vs control in vivo at 40 mg/kg [2]: 382 ± 25% | mortality at 24 h ([3]; 100 mg/Kg oral): 0% | mortality at 24 h ([3]; 400 mg/Kg oral): 60%

Cc1nccn1-c1ccc(N)cc1Cl [G, 1-(2-Chloro-4-aminophenyl)-2-methylimidazole]
minimal effective dose [1]: 10 mg/kg | response vs control in vivo at 40 mg/kg [2]: 254 ± 68% | mortality at 24 h ([3]; 100 mg/Kg oral): 0% | mortality at 24 h ([3]; 400 mg/Kg oral): 40%

Cc1nccn1-c1cccc(N)c1 [H, 1-(3-Aminophenyl)-2-methylimidazole]
minimal effective dose [1]: 2.5 mg/kg | response vs control in vivo at 40 mg/kg [2]: 83 ± 3% | mortality at 24 h ([3]; 100 mg/Kg oral): 0% | mortality at 24 h ([3]; 400 mg/Kg oral): 0% | dopamine turnover in the brain [4]: reduce dopamine turnover in the brain

Cc1ccc(-n2ccnc2C)cc1N [I, 1-(3-Amino-4-methylphenyl)-2-methylimidazole]
minimal effective dose [1]: 5 mg/kg | response vs control in vivo at 40 mg/kg [2]: 58 ± 8% | mortality at 24 h ([3]; 100 mg/Kg oral): 0% | mortality at 24 h ([3]; 400 mg/Kg oral): 20% | dopamine turnover in the brain [4]: reduce dopamine turnover in the brain

CCCCNc1ccc(-n2ccnc2C)cc1 [J, 1-(4-n-Butylaminophenyl)-2-methylimidazole]
minimal effective dose [1]: 5 mg/kg | response vs control in vivo at 40 mg/kg [2]: 543 ± 57% | mortality at 24 h ([3]; 100 mg/Kg oral): 0% | mortality at 24 h ([3]; 400 mg/Kg oral): 60%

Cc1nccn1-c1ccc(N)cc1 [K, 1-(4-Aminophenyl)-2-methylimidazole]
minimal effective dose [1]: 1.25 mg/kg | mortality at 24 h ([3]; 100 mg/Kg oral): 40% | mortality at 24 h ([3]; 400 mg/Kg oral): 80% | response vs control in vivo at 10 mg/kg [5]: 350 ± 31%

Cc1nccn1-c1ccc(NC(=O)c2ccc(Cl)cc2)cc1 [L, 1-[4-(4-Chlorobenzoylamino)phenyl]-2-methylimidazole]
minimal effective dose [1]: 10 mg/kg | response vs control in vivo at 40 mg/kg [2]: 367 ± 30% | mortality at 24 h ([3]; 100 mg/Kg oral): 0% | mortality at 24 h ([3]; 400 mg/Kg oral): 0%

Cc1nccn1-c1ccc(NC(=O)c2ccc(F)cc2)cc1 [M, 1-[4-(4-Fluorobenzoylamino)phenyl]-2-methylimidazole]
minimal effective dose [1]: 10 mg/kg | response vs control in vivo at 40 mg/kg [2]: 229 ± 30% | mortality at 24 h ([3]; 100 mg/Kg oral): 0% | mortality at 24 h ([3]; 400 mg/Kg oral): 0%

CCc1nccn1-c1ccc(NC(=O)c2ccc(Cl)cc2)cc1 [N, 1-[4-(4-Chlorobenzoylamino)phenyl]-2-ethylimidazole]
minimal effective dose [1]: 2.5 mg/kg | response vs control in vivo at 40 mg/kg [2]: 207 ± 51% | mortality at 24 h ([3]; 100 mg/Kg oral): 0% | mortality at 24 h ([3]; 400 mg/Kg oral): 0%

CCc1nccn1-c1ccc(NC(=O)c2ccc(C)cc2)cc1 [O, 1-[4-(4-Methylbenzoylamino)phenyl]-2-ethylimidazole]
minimal effective dose [1]: 5 mg/kg | response vs control in vivo at 40 mg/kg [2]: 287 ± 23% | mortality at 24 h ([3]; 100 mg/Kg oral): 0% | mortality at 24 h ([3]; 400 mg/Kg oral): 20%

CC(C)c1nccn1-c1ccc(NC(=O)c2ccc(Cl)cc2)cc1 [P, 1-[4-(4-Chlorobenzoylamino)phenyl]-2-isopropylimidazole]
minimal effective dose [1]: 10 mg/kg | response vs control in vivo at 40 mg/kg [2]: 92 ± 14% | mortality at 24 h ([3]; 100 mg/Kg oral): 0% | mortality at 24 h ([3]; 400 mg/Kg oral): 0%

Cc1ccc(C(=O)Nc2ccc(-n3ccnc3C)cc2)cc1 [Q, 1-[4-(4-Methylbenzoylamino)phenyl]-2-methylimidazole]
minimal effective dose [1]: 10 mg/kg | response vs control in vivo at 40 mg/kg [2]: 447 ± 51% | mortality at 24 h ([3]; 100 mg/Kg oral): 0% | mortality at 24 h ([3]; 400 mg/Kg oral): 40%
